Source: US20250262169A1, “METHODS OF TREATING COENZYME Q10 DEFICIENCY” (BPGbio, Inc., priority 2024, published 2025)

Columns and labels:
[1] = cited from earlier work
[2] = cited from earlier work; remark: listed apart in the source
[3] = rats, oral; cited from earlier work
SH-SY5Y cell line = settings: cited from earlier work
COQ2 = target: T1, COQ2 (Homo sapiens, UniProt Q96H96); settings: HL-60 cells; cited from earlier work
T1 construct: host or cells: HL-60 cells (endogenous enzyme)
T1 sequence (Q96H96 35-371): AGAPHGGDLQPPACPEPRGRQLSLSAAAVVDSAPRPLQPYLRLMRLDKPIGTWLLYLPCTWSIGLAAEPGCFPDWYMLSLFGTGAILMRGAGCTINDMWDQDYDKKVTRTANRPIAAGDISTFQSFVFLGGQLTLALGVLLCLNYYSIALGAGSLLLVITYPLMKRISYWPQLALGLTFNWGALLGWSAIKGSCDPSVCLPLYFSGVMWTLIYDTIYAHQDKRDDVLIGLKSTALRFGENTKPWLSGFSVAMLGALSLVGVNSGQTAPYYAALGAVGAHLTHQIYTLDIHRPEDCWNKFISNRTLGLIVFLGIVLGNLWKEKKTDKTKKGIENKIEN

SH-SY5Y cells = assay: Oxidized CoQ10 levels in PABA-induced CoQ10 deficient neuronal cells; assay type: cell-based; settings: 1 mM PABA for 5 days
Source text: An established model of CoQ10 deficiency was used to study the effects of BPM31510 in vitro. […] A neuronal cell model of CoQ10 deficiency by treatment of the neuronal SH-SY5Y cell line with PABA has previously been established. In this model, a significant reduction of cellular ATP production and increase in mitochondrial reactive oxygen species (ROS) was observed. […] Therefore, this PABA-induced CoQ10 deficient in vitro model was used to evaluate the potency of BPM31510 to restore ATP levels and reduce mitochondrial ROS.
SH-SY5Y cells were pretreated for 5 days with 1 mM PABA or vehicle in all experiments.

[4] = young rats, after four days of dosing
[5] = CoQ10 supplementation 2.5 μM and 5 μM

Row | SMILES | solubility in water [1] | concentration of CoQ10 in brain ([2]; 1-2 month old animals, oral administration) | CoQ10 in cerebral tissues ([2]; 12 month old and 24 month old rats, oxidized and reduced forms) | concentration in heart or kidney [2, 4] | plasma, liver, and spleen concentrations [2, 4] | orally-administered CoQ10 absorbed [3] | electron transport chain (ETC) activities (SH-SY5Y cell line; [5]) | mitochondrial oxidative stress (SH-SY5Y cell line; [5]) | exogenous CoQ10 required to restore ETC activities (SH-SY5Y cell line; PABA treated SH-SY5Y) [µM] | correction of ATP and ROS levels (SH-SY5Y cell line; higher concentrations (>10 μM), reports in literature) | COQ2 activity (COQ2) | reduction of oxidized CoQ10 levels (SH-SY5Y cells)
1 | COC1=C(OC)C(=O)C(C/C=C(\C)CC/C=C(\C)CC/C=C(\C)CC/C=C(\C)CC/C=C(\C)CC/C=C(\C)CC/C=C(\C)CC/C=C(\C)CC/C=C(\C)CCC=C(C)C)=C(C)C1=O [CoQ10, Coenzyme Q10] | insoluble in water | did not increase | accumulation of CoQ10 in cerebral tissues | no increase | increased | 2-3% | unable to fully restore | effective at significantly reducing | > 10 | not complete | – | –
2 | Nc1ccc(C(=O)O)cc1 [PABA, Para-aminobenzoic acid] | – | – | – | – | – | – | – | – | – | – | inhibit COQ2 activity | approximately 90%
